Measurements published in patent publication US12043827B2, “Compositions, systems, and methods for base diversification” (Pairwise Plants Services, Inc., priority 2020, dated 2024).

Columns and labels:
Assay type in all cases: cell-based
endogenous loci = assay: Transversion mutations from adenine: ABE7.10 with inosine glycosylases (fusion or in trans), HTS in HEK293T cells; conditions: all conditions that used ABE7.10, 3 days
Description: The experiment was designed to generate transversion mutations from adenines by promoting inosines to undergo the same cellular DNA repair pathways that generate transversion mutations during translesion-bypass polymerization in cytosine base editing. While not wishing to be bound to any particular theory, it was hypothesized that the key step was to facilitate the glycosylation of inosines generated during adenine base editing. It was hypothesized that once glycosylated, the resulting abasic site can be a substrate for translesion-bypass repair and that this would lead to transversion mutations. Exogenous inosine glycosylases were provided along with ABE to promote inosine glycosylation.
Several inosine glycosylases were screened in HEK293T cells and it was determined whether they were capable of acting on inosines generated by ABE. If inosine is converted into an abasic site, and subsequently repaired through translesion-bypass polymerization, transversion mutations can be generated from adenines.
Five different glycosylases from various species were selected for testing. The following genes were codon-optimized and cloned into a mammalian expression vector, either as unfused gene, or as a C-terminal fusion to ABE7.10 (species source in parenthesis); hMPG (Homo sapiens) having an amino acid sequence of SEQ ID NO:84, mMPG (Mus musculus) having an amino acid sequence of SEQ ID NO:83, rMPG (Rattus norvegicus) having an amino acid sequence of SEQ ID NO:80, SpThp1 (Schizosaccharomyces pombe) having an amino acid sequence of SEQ ID NO:79, MaHDG (Methanosarcina acetivorans) having an amino acid sequence of SEQ ID NO:81, and MbHDG (Methanosarcina barkeri) having an amino acid sequence of SEQ ID NO:82. […] The HEK293T cells were transfected with a plasmid encoding gRNA targeting endogenous loci and either the fusion plasmid or a mixture of plasmids expressing ABE7.10 and the above inosine glycosylases. After 3 days, high-throughput sequencing was used to determine the editing result of targeted adenines. Mock transfection (using pUC19) was used to set baseline editing. All conditions that used ABE7.10 generated 10-20% guanine transition, as expected.

FANCF genomic site = assay: Adenine base editing with inosine glycosylases, FANCF site (FIGS. 8A-8C); conditions: all conditions that used ABE
Description: (§1) FIGS. 8A-8C are graphs showing adenine base editing results for a FANCF genomic site. Adenines in the target window were diversified into cytosine and thymine. All conditions that used ABE generated ˜10-20% guanine mutation, as expected. FIG. 8A is a graph providing the results for inosine glycosylase for fusion constructs. FIG. 8B is a graph providing the results for inosine glycosylases provided in trans and overexpressed in the cell. […] is a graph showing the amount of indels generated by the constructs.
(§2) Five different glycosylases from various species were selected for testing. The following genes were codon-optimized and cloned into a mammalian expression vector, either as unfused gene, or as a C-terminal fusion to ABE7.10 (species source in parenthesis); hMPG (Homo sapiens) having an amino acid sequence of SEQ ID NO:84, mMPG (Mus musculus) having an amino acid sequence of SEQ ID NO:83, rMPG (Rattus norvegicus) having an amino acid sequence of SEQ ID NO:80, SpThp1 (Schizosaccharomyces pombe) having an amino acid sequence of SEQ ID NO:79, MaHDG (Methanosarcina acetivorans) having an amino acid sequence of SEQ ID NO:81, and MbHDG (Methanosarcina barkeri) having an amino acid sequence of SEQ ID NO:82. […]

HEK2 genomic site = assay: Adenine base editing with inosine glycosylases, HEK2 site (FIGS. 7A-7C); conditions: all conditions that used ABE
Description: as §1, with “7A-7C” for “8A-8C”, “HEK2” for “FANCF”, “7A” for “8A”, “glycosylase” for “glycosylase for”, “7B” for “8B”
as §2

[1] = system: spacer sequence corresponding to SEQ ID NO:131; assay: SunTag recruitment system for adenine base diversifier / reduced Cas9 binding affinity, HTS in HEK293T cells; conditions: scFv-TadA8.20m-GB1 or scFv-TadA8e-GB1, glycosylase overexpressed in trans, FIGS. 10 and 11
Description: Different forms of Cas9 were expressed in HEK293T cells, which were: nCas9(D10A) (SEQ ID NO:36), dCas9-SunTag (SEQ ID NO:135), nCas9(D10A)-SunTag (SEQ ID NO:136), and enCas9(D10A)-SunTag (SEQ ID NO:137), along with a SunTag-antibody-fused adenine deaminase, with a GB1 solubility tag at the C-terminus, having a sequence of SEQ ID NO:138 or SEQ ID NO:139. An inosine glycosylase, which was hMPG (SEQ ID NO:84), mMPG (SEQ ID NO:83), or SpThp1 (SEQ ID NO:79) was overexpressed in trans. The glycosylase was not actively recruited, but was expressed in the cell at the same time as the Cas9 and deaminase.
In an attempt to reduce the Cas9 DNA binding affinity to a target nucleic acid, Cas9 having mutated amino acid residues that may interact with the target nucleic acid were used. Without being limited to any particular theory, the thought was that this would facilitate the dissociation of Cas9 from the target nucleic acid once adenine is converted to inosine; thus, providing greater access for inosine glycosylase. Specifically, enCas9(D10A) (SEQ ID NO:39) contains two mutations that reduce DNA binding affinity compared to nCas9(D10A) (Halperin et al. Nature 2018 560(7717):248-252). The effect of the mutations in the context of SunTag-mediated adenine diversification were tested. […]
After three days, the editing efficiency was measured by high throughput sequencing of targeted loci. […]

[2] = system: Sites 1-4 (SEQ ID NO:131-134); assay: Truncation of inosine glycosylase regulatory domain, hMPG vs thMPG fusions to ABE8.20m; conditions: N- and C-terminus fusions to ABE8.20m, four sites, FIG. 12
Description: Methylpurine glycosylase (MPG) usually contains two domains. The catalytic domain of MPG is necessary for excising inosine from DNA (Hollis, Lau, Ellenberger. Mutation Research 2000, 460, 201-210). Without being bound to any particular theory, in an effort to reduce the size of MPG, potentially allow for better inosine access to the catalytic domain, and potentially improve the solubility of the fusion complex, the N-terminus of MPG was truncated.
In this experiment, both N-terminus and C-terminus fusions of hMPG to ABE8.20m (SEQ ID NO:57) were tested with a truncated variant of hMPG (thMPG) (SEQ ID NO:85). Four different target nucleic acids were tested, which were: Site 1: […] (SEQ ID NO:131), Site 2: […] (SEQ ID NO:132), Site 3: […] (SEQ ID NO:133), and Site 4: […] (SEQ ID NO:134).

## ABE7.10: adenine base editor, unfused ABE7.10 having amino acid sequence of SEQ ID NO:55
Endogenous loci
  guanine transition of targeted adenines: 10-20%
FANCF genomic site
  guanine mutation: 10-20%
HEK2 genomic site
  guanine mutation: 10-20%

## nCas9(D10A)-SunTag: Cas9 nickase (D10A) fused to SunTag, SEQ ID NO:136
[1]
  A to C or T editing: increase in A to C or T editing compared to expression of nCas9(D10A) without SunTag

B1: thMPG: truncated variant of hMPG, SEQ ID NO:85, fused to ABE8.20m (protein, listed as Homo sapiens)
chain: KGHLTRLGLEFFDQPAVPLARAFLGQVLVRRLPNGTELRGRIVETEAYLGPEDEAAHSRGGRQTPRNRGMFMKPGTLYVYIIYGMYFCMNISSQGDGACVLLRALEPLEGLETMRQLRSTLRKGTASRVLKDRELCSGPSKLCQALAINKSFDQRDLAQDEAVWLERGPLEPSEPAVVAAARVGVGHAGEWARKPLRFYVRGSPWVSVVDRVAEQDTQA
[2]
  adenine conversion to C or T activity, truncated vs full-length MPG: no observed decrease in activity and, in some cases, there was an observed increase in adenine conversion to C or T
